From article PMC12281424, “A Rac-specific competitive inhibitor of guanine nucleotide binding reduces metastasis in triple-negative breast cancer” (Cell Reports Medicine, 2025)

Assays:
[1] = tested on: MDA-MB-468 Luc cells; assay: Orthotopic breast cancer (TNBC xenograft) model; format: in vivo, mouse; conditions: 25 mg/kg/day i.p.
Description: The anti-metastatic potential of A41 was assessed in a TNBC xenograft model by orthotopic injection of MDA-MB-468 Luc cells into the mammary fat pad of […] Nordic Medical Research Institute (NMRI) nude mice randomized in 2 groups. The tumor grows gradually over time. At the 50th day post grafting, when a volume of ∼1,000 mm^3 was reached, the tumor was resected, which corresponded to tumor mass of approximately 0.6 g (Figure S8A). Mice were then treated with A41 (25 mg/kg/day, intraperitoneally; group 2) or vehicle for 4 weeks (group 1).
Figure 6 A41 decreases metastasis of TNBC cells in vivo (A) Representative images of luciferase bioluminescence intensities (BLI) in whole body, legs, and ovaries/uterus 4 weeks after resection of MD1-MB-468 Luc tumor in NMRI nude mice not treated (control) and treated with A41 (25 mg/kg/day, intraperitoneally for 4 weeks). (B) Metastasis frequency quantification based on ex vivo BLI measurements in indicated organs from control (black bars) and A41-treated mice 4 weeks after tumor resection (white bars) (N = 10–15 mice; ∗p < 0.05 vs. controls). (C) BLI quantification in legs and ovaries/uterus from control (black squares) and A41-treated (white squares) NMRI nude mice 4 weeks after tumor resection (N = 10–15 mice; ∗p < 0.05 vs. controls). (D) Cumulative proportion of immunocompetent control (red) and A41-treated mice (blue) displaying regrowth of the primary tumor after its resection. (E) Metastasis frequency quantified from ex vivo BLI measurements in leg bones, lungs, kidneys, and ovaries/uterus from immunocompetent control (black bar) and A41-treated (white bar) mice (N = 10 mice; ∗p < 0.05 vs. control). (F) Survival curve of immunocompetent control (red) and A41-treated mice (blue) after primary tumor resection (day 0).
Orthotopic cell xenograft was performed by injection of 4 million MDA-MB-468Luc cells in the fourth fat pad from 5-week-old NMRI nude mice. Primary tumour was allowed to develop during 5 weeks and tumour growth was assessed by tumour volume measurement using a caliper. Primary tumor was then removed by surgical exeresis and weighed. Treatments began 1 day before exeresis. A41 (25 mg/kg) was administered intraperitoneally on a daily basis during 4 weeks. Mice were weighed 5 times a week and in vivo bioluminescence intensities were measured once a week (Imager PerkinElmer IVIS spectrum bioluminescence imager). At the end of the protocol, mice were sacrificed and ex vivo bioluminescence intensities of indicated organs (legs, ovaries, uterus, lungs and liver) were measured within 15 min of D-luciferin intraperitoneal injection (150 mg kg−1). Photons emitted by cancer cells were counted by bioluminescent imaging and expressed in counts per minute (c.p.m.).

[2] = biological target: Adrenergic β2 (Homo sapiens, UniProt P07550); assay: Safety screen; format: binding
Description: (§1) Blood cell counts, kinase profiler, safety screen, bacterial cytotoxicity, Ames, micronucleus assays were performed by the company Eurofins (France). The kinase profiler was performed by the company Eurofins (Discovery, Panlab and Cerep).

[3] = biological target: TBK1(h) (Homo sapiens, UniProt Q9UHD2); assay: Kinase Profiler; format: biochemical
Description: as §1

[4] = biological target: Rsk1(r) (Rattus norvegicus, UniProt Q63531); assay: Kinase Profiler; format: biochemical
Description: (§2) The kinase profiler was performed by the company Eurofins (Discovery, Panlab and Cerep).

[5] = biological target: Lck(h) activated (Homo sapiens, UniProt P06239); assay: Kinase Profiler; format: biochemical
Description: as §2

[6] = biological target: PKCβI(h) (Homo sapiens, UniProt P05771); assay: Kinase Profiler; format: biochemical
Description: as §2

[7] = biological target: FGFR4(h) (Homo sapiens, UniProt P22455); assay: Kinase Profiler; format: biochemical
Description: as §2

[8] = biological target: CDK1/cyclinB(h) (Homo sapiens, UniProt P06493); assay: Kinase Profiler; format: biochemical
Description: as §1

[9] = biological target: Adrenergic β1 (Homo sapiens, UniProt P08588); assay: Safety screen; format: binding
Description: as §1

[10] = biological target: Met(Y1248C)(h) (Homo sapiens, UniProt P08581, Y1230C); assay: Kinase Profiler; format: biochemical
Description: as §2

[11] = biological target: PI3K (p110b/p85a)(m) (Mus musculus, UniProt Q8BTI9); assay: Kinase Profiler; format: biochemical
Description: as §1

[12] = biological target: WNK4(h) (Homo sapiens, UniProt Q96J92); assay: Kinase Profiler; format: biochemical
Description: as §2

[13] = biological target: PI3K (p110a(H1047R)/p85a)(m) (Mus musculus, UniProt P42337, H1047R); assay: Kinase Profiler; format: biochemical
Description: as §1

[14] = biological target: Adrenergic α1A (Rattus norvegicus, UniProt P43140); assay: Safety screen; format: binding
Description: Blood cell counts, kinase profiler, safety screen, bacterial cytotoxicity, Ames, micronucleus assays were performed by the company Eurofins (France).

[15] = White blood cell formula; format: in vivo, mouse
Description: Data S6. Formule white blood cell (% of leukocytes) in control and A41-treated mice (25
Control (n=5) A41 (n=5) p value

[16] = biological target: CK2(h) (Homo sapiens, UniProt P68400); assay: Kinase Profiler; format: biochemical
Description: as §2

[17] = biological target: PASK(h) (Homo sapiens, UniProt Q96RG2); assay: Kinase Profiler; format: biochemical
Description: as §2

[18] = biological target: VRK2(h) (Homo sapiens, UniProt Q86Y07); assay: Kinase Profiler; format: biochemical
Description: as §2

[19] = tested on: Calcium Channel L-Type, Benzothiazepine; assay: Safety screen; format: binding, rat
[20] = biological target: Aurora-C(h) (Homo sapiens, UniProt Q9UQB9); assay: Kinase Profiler; format: biochemical
Description: as §1

[21] = biological target: DYRK2(h) (Homo sapiens, UniProt Q92630); assay: Kinase Profiler; format: biochemical
Description: as §2

[22] = biological target: Ros(h) (Homo sapiens, UniProt P08922); assay: Kinase Profiler; format: biochemical
Description: as §1

[23] = Ames fluctuation test (2nd group); format: cell-based
Description: Data S3. Ames-fluctuation assay-A41.
Test Concentration Count Positive Significance Fisher Exact Test
(# of wells) (- to +++) (p-value)
Ames fluctuation test (TA100 + S9

Aurora-C(h), sequence (Q9UQB9 whole entry): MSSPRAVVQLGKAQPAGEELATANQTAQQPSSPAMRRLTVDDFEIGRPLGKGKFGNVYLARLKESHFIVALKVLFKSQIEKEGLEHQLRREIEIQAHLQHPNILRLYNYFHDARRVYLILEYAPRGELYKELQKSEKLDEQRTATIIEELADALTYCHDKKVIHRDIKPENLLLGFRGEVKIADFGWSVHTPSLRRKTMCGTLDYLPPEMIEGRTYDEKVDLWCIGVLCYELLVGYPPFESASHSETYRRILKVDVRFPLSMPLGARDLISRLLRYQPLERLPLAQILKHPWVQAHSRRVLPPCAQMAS
Adrenergic β2, sequence (P07550 whole entry): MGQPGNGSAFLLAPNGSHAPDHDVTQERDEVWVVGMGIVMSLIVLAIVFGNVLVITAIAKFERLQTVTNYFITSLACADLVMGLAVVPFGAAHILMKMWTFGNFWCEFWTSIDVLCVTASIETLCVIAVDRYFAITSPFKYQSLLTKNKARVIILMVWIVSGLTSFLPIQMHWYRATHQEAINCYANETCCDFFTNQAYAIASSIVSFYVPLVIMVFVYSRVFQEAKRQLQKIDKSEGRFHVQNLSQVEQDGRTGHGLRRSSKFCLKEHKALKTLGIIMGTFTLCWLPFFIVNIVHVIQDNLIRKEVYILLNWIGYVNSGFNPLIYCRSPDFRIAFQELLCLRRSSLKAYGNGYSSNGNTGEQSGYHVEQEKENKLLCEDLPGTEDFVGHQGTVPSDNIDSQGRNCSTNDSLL
CK2(h), sequence (P68400 whole entry): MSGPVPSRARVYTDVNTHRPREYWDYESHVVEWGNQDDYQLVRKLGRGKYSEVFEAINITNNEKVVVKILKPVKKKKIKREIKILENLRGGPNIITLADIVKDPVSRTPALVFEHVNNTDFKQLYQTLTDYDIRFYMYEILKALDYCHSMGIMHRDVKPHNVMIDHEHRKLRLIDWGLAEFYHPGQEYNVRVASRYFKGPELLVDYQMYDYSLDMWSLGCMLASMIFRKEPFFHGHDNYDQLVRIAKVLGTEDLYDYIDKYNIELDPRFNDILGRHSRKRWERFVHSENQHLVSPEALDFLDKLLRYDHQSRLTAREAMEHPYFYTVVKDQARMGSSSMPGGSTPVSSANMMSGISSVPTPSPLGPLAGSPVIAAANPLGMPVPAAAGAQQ
CK2(h), sequence (P67870 whole entry partner): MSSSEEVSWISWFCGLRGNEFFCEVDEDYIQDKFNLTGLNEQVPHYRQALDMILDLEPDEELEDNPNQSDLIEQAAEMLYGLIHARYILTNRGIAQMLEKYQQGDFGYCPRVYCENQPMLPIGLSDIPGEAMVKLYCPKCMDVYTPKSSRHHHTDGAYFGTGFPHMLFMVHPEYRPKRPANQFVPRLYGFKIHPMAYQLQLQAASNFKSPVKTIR
PASK(h), sequence (Q96RG2 whole entry): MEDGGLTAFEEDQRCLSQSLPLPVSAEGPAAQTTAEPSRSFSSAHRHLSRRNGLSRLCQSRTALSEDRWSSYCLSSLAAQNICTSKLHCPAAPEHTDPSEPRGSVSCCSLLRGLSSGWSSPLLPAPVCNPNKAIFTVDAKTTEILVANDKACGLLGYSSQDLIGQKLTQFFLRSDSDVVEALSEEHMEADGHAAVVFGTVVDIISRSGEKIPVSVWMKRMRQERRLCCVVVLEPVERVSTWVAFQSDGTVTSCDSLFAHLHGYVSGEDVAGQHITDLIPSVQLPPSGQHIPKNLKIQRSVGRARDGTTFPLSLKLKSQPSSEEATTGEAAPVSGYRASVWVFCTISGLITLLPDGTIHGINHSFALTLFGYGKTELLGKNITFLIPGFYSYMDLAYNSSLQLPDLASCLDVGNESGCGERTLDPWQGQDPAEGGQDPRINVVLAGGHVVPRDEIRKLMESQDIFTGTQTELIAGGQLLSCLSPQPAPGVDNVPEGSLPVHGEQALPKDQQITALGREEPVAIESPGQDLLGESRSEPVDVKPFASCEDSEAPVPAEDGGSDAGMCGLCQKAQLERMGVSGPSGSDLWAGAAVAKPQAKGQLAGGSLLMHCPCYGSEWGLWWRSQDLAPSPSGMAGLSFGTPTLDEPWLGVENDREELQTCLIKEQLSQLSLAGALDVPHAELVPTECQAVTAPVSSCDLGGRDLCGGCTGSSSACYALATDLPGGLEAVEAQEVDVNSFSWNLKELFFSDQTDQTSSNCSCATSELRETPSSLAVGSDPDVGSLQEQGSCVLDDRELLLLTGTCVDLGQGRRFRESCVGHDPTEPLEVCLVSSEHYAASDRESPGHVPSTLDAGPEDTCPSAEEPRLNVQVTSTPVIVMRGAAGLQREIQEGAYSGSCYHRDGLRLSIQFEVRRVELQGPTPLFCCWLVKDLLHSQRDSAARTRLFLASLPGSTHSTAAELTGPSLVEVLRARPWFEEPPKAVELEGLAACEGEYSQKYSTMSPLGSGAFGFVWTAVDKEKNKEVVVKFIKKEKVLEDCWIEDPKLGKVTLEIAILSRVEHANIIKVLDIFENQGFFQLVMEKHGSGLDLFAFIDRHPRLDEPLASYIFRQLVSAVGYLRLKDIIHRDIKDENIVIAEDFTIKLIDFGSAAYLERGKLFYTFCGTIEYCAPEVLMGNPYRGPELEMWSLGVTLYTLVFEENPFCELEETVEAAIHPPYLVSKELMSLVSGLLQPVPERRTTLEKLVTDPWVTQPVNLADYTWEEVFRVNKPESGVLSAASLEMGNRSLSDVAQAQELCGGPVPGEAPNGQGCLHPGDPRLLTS
PI3K (p110a(H1047R)/p85a)(m), sequence (P42337 whole entry H1047R): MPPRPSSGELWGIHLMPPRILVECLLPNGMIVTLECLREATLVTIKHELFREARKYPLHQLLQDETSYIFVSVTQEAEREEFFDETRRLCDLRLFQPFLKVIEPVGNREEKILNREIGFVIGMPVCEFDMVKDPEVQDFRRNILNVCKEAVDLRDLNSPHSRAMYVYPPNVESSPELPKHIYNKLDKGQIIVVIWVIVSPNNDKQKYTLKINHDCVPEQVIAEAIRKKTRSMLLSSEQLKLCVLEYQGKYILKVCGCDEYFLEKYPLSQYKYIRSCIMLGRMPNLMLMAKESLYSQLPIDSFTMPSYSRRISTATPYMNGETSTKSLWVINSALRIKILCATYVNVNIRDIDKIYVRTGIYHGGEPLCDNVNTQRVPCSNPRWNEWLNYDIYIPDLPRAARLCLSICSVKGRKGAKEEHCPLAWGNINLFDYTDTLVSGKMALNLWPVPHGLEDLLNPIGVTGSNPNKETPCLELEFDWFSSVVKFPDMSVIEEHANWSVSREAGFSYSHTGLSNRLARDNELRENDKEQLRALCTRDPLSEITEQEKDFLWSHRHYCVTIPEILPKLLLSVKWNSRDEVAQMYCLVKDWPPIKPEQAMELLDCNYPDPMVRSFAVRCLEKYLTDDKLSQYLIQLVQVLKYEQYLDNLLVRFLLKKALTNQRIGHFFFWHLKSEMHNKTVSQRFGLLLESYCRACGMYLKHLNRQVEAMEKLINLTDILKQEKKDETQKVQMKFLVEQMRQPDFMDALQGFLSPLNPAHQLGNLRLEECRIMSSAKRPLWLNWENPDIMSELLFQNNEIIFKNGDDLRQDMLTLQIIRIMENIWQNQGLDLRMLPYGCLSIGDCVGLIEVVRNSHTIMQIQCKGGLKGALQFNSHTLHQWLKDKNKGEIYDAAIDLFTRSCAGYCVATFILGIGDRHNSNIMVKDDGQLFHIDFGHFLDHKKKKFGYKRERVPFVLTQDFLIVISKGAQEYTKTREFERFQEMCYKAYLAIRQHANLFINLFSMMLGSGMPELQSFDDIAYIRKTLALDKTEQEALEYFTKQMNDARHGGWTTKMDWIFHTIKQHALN
PI3K (p110a(H1047R)/p85a)(m), sequence (P26450 2-724 partner): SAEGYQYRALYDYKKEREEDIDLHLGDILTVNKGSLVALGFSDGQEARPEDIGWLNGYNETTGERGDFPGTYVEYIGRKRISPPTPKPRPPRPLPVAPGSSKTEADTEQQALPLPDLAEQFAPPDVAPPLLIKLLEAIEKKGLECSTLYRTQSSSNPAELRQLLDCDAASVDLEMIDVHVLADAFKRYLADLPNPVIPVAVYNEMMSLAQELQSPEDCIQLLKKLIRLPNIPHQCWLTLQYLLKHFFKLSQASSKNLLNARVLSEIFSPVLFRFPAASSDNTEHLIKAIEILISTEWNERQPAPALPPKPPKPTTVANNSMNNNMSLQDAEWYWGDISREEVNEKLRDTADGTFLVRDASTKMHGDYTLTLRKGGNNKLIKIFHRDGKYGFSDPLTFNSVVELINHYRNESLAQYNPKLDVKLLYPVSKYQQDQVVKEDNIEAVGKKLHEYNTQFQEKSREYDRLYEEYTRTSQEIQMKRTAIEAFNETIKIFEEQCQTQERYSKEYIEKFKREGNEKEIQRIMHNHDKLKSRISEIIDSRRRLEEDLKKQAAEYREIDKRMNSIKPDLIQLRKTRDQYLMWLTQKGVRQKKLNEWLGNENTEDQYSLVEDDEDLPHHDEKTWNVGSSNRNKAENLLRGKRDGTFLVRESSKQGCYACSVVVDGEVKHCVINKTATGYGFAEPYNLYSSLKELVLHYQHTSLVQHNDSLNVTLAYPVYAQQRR
VRK2(h), sequence (Q86Y07 whole entry): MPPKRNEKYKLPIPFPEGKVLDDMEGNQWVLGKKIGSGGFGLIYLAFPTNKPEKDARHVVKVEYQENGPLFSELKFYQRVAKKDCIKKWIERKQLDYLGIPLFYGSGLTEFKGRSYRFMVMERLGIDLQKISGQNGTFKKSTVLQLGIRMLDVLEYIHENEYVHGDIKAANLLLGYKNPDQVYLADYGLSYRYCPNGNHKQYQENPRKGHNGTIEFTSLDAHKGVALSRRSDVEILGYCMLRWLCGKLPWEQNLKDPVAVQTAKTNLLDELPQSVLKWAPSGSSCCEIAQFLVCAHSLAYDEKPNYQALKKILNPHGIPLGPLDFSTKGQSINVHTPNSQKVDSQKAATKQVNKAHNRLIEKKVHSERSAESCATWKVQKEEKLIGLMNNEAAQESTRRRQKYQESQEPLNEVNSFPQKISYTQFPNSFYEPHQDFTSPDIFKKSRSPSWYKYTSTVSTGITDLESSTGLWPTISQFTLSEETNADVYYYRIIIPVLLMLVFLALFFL

SMILES: COc1ccc(OC)c(NS(=O)(=O)c2ccc(NC(=O)CCSc3ccc(C)cc3)cc2)c1 [Compound A41]
- primary tumor regrowth (in vivo BLI) ([1]; 4 weeks after resection): decrease in primary tumor regrowth
- ex vivo luminescence intensity of femur, ovaries, and uterus ([1]; 4 weeks post resection): significantly lower in A41-treated than in control mice
- metastasis frequency (leg bones, lungs, kidneys, ovaries, uterus; ex vivo BLI) ([1]; 4 weeks post resection): significantly higher frequency in control than in A41-treated mice
- weight of the mice ([1]; 4 weeks, vs vehicle): no difference between the two groups
- % inh. [2]: 5%
- Activity(%) [3]: 102%
- Activity(%) [4]: 128%
- Activity(%) [5]: 90%
- Activity(%) [6]: 98%
- Activity(%) [7]: 116%
- Activity(%) [8]: 96%
- % inh. [9]: 2%
- Activity(%) [10]: 118%
- Activity(%) [11]: 101%
- Activity(%) [12]: 107%
- Activity(%) [13]: 100%
- % inh. [14]: 34%
- B cells, Mean (SD) ([15]; 25 mg/kg/d, n=5): 11.62 (1.58) % of leukocytes
- Macrophages, Mean (SD) ([15]; 25 mg/kg/d, n=5): 2.46 (2.34) % of leukocytes
- Monocytes, Mean (SD) ([15]; 25 mg/kg/d, n=5): 0.86 (0.57) % of leukocytes
- NK cells, Mean (SD) ([15]; 25 mg/kg/d, n=5): 0.40 (0.22) % of leukocytes
- Neutrophiles, Mean (SD) ([15]; 25 mg/kg/d, n=5): 4.19 (6.24) % of leukocytes
- T cells, Mean (SD) ([15]; 25 mg/kg/d, n=5): 52.20 (2.11) % of leukocytes
- white cell blood counts ([15]; chronic A41 treatment, immunocompetent mice): not accompanied by changes in white cell blood counts
- Activity(%) [16]: 110%
- Activity(%) [17]: 97%
- Activity(%) [18]: 110%
- % inh. [19]: 46%
- Activity(%) [20]: 100%
- Activity(%) [21]: 104%
- Activity(%) [22]: 139%
- Count Positive (# of wells) ([23]; 1.0E-04 M): 0
- Count Positive (# of wells) ([23]; 1.0E-05 M): 1
- Count Positive (# of wells) ([23]; 5.0E-05 M): 0
- Count Positive (# of wells) ([23]; 5.0E-06 M): 3
